Experimental data published in patent US5834453A, “Methods for the manufacture and use of antimicrobial sterol conjugates” (Lehigh University, priority 1997, dated 1998).
Converted amounts (≈) assume the structure as drawn. “Also recorded” adds a separate entry of the source. Read-outs that look alike come from different tables or passages of the source.

What was measured:
[1] = Hemolytic activity, minimal hemolytic concentration (MHC); type: cell-based, sheep; conditions: sheep, red blood cells;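 further: MCC here is the minimal hemolytic concentration (MHC)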
Description: Hemolytic activity of the squalamine mimics according to the present invention were also studied by incubating sheep red blood cells for 24 hours at 37° C. in saline (final concentration of 0.5%) with or without respective concentrations of the squalamine mimics. The minimal hemolytic concentration (MHC) was determined as the lowest concentration of a mimic that raised visible hemolysis.

E. cloacae (13047) = test: MIC, micro-broth dilution; type: cell-based; conditions: Enterobacter cloacae, 35° C., 24 hours, read-out: ANTIMICROBIAL ACTIVITY (MIC)
Description: (§1) The antimicrobial activity of the compounds according to the present invention were compared with the results obtained for squalamine as reported in Proc. Nat. Acad. Sci. USA 90:1354 (1993), supra, the disclosure of which is incorporated in toto herein. The data reported in the following table is the minimum inhibitory concentration (MIC) required for complete inhibition of microbial growth. The MIC was determined utilizing known micro-broth dilution methods in which inocula of 10^6 /ml of the test organism were incubated in 0.5× trypticase soy broth at 35° C. for 24 hours. MIC's were also tested under various pH conditions, with calcium chloride or magnesium chloride, or with immobilized horse serum.
(§2) The numbers in parentheses contained in the table correspond to accession numbers with the American Type Culture Collection (reference strains were either obtained from the American Type Culture Collection or from the Microbiology Laboratory at Memorial Sloan-Kettering Cancer Center; Bacterial strains were maintained on Columbia 5% sheep blood agar plates, and fungi were maintained on Sabouraud Dextrose agar plates).

E. faecium (T6480-9) = test: MIC, micro-broth dilution; type: cell-based; conditions: Enterococcus faecium, 35° C., 24 hours, read-out: ANTIMICROBIAL ACTIVITY (MIC)
Description: as §1, §2

P. aeruginosa (2853) = test: MIC, micro-broth dilution; type: cell-based; conditions: Pseudomonas aeruginosa, 24 h, read-out: ANTIMICROBIAL ACTIVITY (MIC)
Description: as §1, §2

K. pneumoniae (13883) = test: MIC, micro-broth dilution; type: cell-based; conditions: Klebsiella pneumoniae, 24 h, read-out: ANTIMICROBIAL ACTIVITY (MIC)
Description: as §1, §2

C. neoformans (M68979) = test: MIC, micro-broth dilution; type: cell-based; conditions: Cryptococcus neoformans, 24 h, read-out: ANTIMICROBIAL ACTIVITY (MIC)
Description: as §1, §2

S. aureus (H20809) = test: MIC, micro-broth dilution; type: cell-based; conditions: Staphylococcus aureus, read-out: ANTIMICROBIAL ACTIVITY (MIC)
Description: as §1, §2

S. marcescens (13880) = test: MIC, micro-broth dilution; type: cell-based; conditions: for MIC: Serratia marcescens, 24 h, read-out: ANTIMICROBIAL ACTIVITY (MIC)
Description: as §1, §2

S. pyrogenes (19615) = test: MIC, micro-broth dilution; type: cell-based; conditions: 24 h, read-out: ANTIMICROBIAL ACTIVITY (MIC)
Description: as §1, §2

E. faecalis (29212) = test: MIC, micro-broth dilution; type: cell-based; conditions: Enterococcus faecalis, 35° C., 24 hours, read-out: ANTIMICROBIAL ACTIVITY (MIC)
Description: as §1, §2

S. epidermidis (12228) = test: MIC, micro-broth dilution; type: cell-based; conditions: Staphylococcus epidermidis, 35° C., 24 hours, read-out: ANTIMICROBIAL ACTIVITY (MIC)
Description: as §1, §2

A. fumigatus (H1120) = test: MIC, micro-broth dilution; type: cell-based; conditions: Aspergillus fumigatus, 35° C., 24 hours, read-out: ANTIMICROBIAL ACTIVITY (MIC)
Description: as §1, §2

E. coli (25922) = test: MIC, micro-broth dilution; type: cell-based; conditions: Escherichia coli, 35° C., 24 hours, read-out: ANTIMICROBIAL ACTIVITY (MIC)
Description: as §1, §2

S. aureus (25923) = test: MIC, micro-broth dilution; type: cell-based; conditions: Staphylococcus aureus, 35° C., 24 hours, read-out: ANTIMICROBIAL ACTIVITY (MIC)
Description: as §1, §2

S. aureus (29213) = test: MIC, micro-broth dilution; type: cell-based; conditions: Staphylococcus aureus, 24 h, read-out: ANTIMICROBIAL ACTIVITY (MIC)
Description: as §1, §2

C. neoformans (90012) = test: MIC, micro-broth dilution; type: cell-based; conditions: Cryptococcus neoformans, 24 h, read-out: ANTIMICROBIAL ACTIVITY (MIC)
Description: as §1, §2

A. fumigatus (H29709) = test: MIC, micro-broth dilution; type: cell-based; conditions: Aspergillus fumigatus, 35° C., 24 hours, read-out: ANTIMICROBIAL ACTIVITY (MIC)
Description: as §1, §2

P. aeruginosa (10145) = test: MIC, micro-broth dilution; type: cell-based; conditions: Pseudomonas aeruginosa, 35° C., 24 hours, read-out: ANTIMICROBIAL ACTIVITY (MIC)
Description: as §1, §2

C. albicans (90028) = test: MIC, micro-broth dilution; type: cell-based; conditions: Candida albicans, 35° C., 24 hours, read-out: ANTIMICROBIAL ACTIVITY (MIC)
Description: as §1, §2

S. pneumoniae (6305) = test: MIC, micro-broth dilution; type: cell-based; conditions: Streptococcus pneumoniae, 35° C., 24 hours, read-out: ANTIMICROBIAL ACTIVITY (MIC)
Description: as §1, §2

P. vulgaris (13315) = test: MIC, micro-broth dilution; type: cell-based; conditions: Proteus vulgaris, 35° C., 24 hours, read-out: ANTIMICROBIAL ACTIVITY (MIC)
Description: as §1, §2

S. agalactiae (13813) = test: MIC, micro-broth dilution; type: cell-based; conditions: Streptococcus agalactiae, 35° C., 24 hours, read-out: ANTIMICROBIAL ACTIVITY (MIC)
Description: as §1, §2

Row | SMILES | MCC at 24 h [1] [µg/mL] | MIC (E. cloacae (13047)) [µg/mL] | MIC (E. faecium (T6480-9)) [µg/mL] | MIC (P. aeruginosa (2853)) [µg/mL] | MIC (K. pneumoniae (13883)) [µg/mL] | MIC (C. neoformans (M68979)) [µg/mL] | MIC (S. marcescens (13880)) [µg/mL] | MIC (S. pyrogenes (19615)) [µg/mL] | MIC (E. faecalis (29212)) [µg/mL] | MIC (S. epidermidis (12228)) [µg/mL] | MIC (A. fumigatus (H1120)) [µg/mL] | MIC (E. coli (25922)) [µg/mL] | MIC (S. aureus (25923)) [µg/mL] | MIC (S. aureus (29213)) [µg/mL] | MIC (C. neoformans (90012)) [µg/mL] | MIC (A. fumigatus (H29709)) [µg/mL] | MIC (P. aeruginosa (10145)) [µg/mL] | MIC (C. albicans (90028)) [µg/mL] | MIC (S. pneumoniae (6305)) [µg/mL] | MIC (P. vulgaris (13315)) [µg/mL] | other results
1 | C[C@H](CCC(=O)NCCCNCCCCNCCCN)[C@H]1CC[C@H]2[C@@H]3CC[C@@H]4C[C@H](OS(=O)(=O)O)CC[C@]4(C)[C@H]3CC[C@]12C [SM-22] | > 100 | > 100 | > 100 | > 100 | > 100 | 25 (≈ 39 µM) | > 100 | 1.56 (≈ 2.43 µM) | > 100 | 1.56 (≈ 2.43 µM) | > 100 | > 100 | 1.56 (≈ 2.43 µM) | 1.56 (≈ 2.43 µM) | 25 (≈ 39 µM) | > 100 | > 100 | > 100 | 25 (≈ 39 µM) | > 100 | MIC (S. aureus (H20809); 24 h): 3.13 µg/mL (≈ 4.88 µM); MIC (S. agalactiae (13813)): > 100 µg/mL
2 | C[C@H](CCC(=O)NCCNCCNCCN)[C@H]1CC[C@H]2[C@@H]3CC[C@@H]4C[C@H](O)CC[C@]4(C)[C@H]3CC[C@]12C [SM-27] | 50 | 25 (≈ 49.5 µM) | 12.5 (≈ 24.8 µM) | 12.5 (≈ 24.8 µM) | 6.25 (≈ 12.4 µM) | 3.13 (≈ 6.2 µM) | 12.5 (≈ 24.8 µM) | 1.56 (≈ 3.09 µM) | 12.5 (≈ 24.8 µM) | 3.13 (≈ 6.2 µM) | 100 (≈ 198 µM) | 3.13 (≈ 6.2 µM) | 6.25 (≈ 12.4 µM) | 6.25 (≈ 12.4 µM) | 3.13 (≈ 6.2 µM) | 100 (≈ 198 µM) | 25 (≈ 49.5 µM) | 25 (≈ 49.5 µM) | 3.13 (≈ 6.2 µM) | 12.5 (≈ 24.8 µM) | MIC (S. aureus (H20809); 24 h): 6.25 µg/mL (≈ 12.4 µM); activity against S. marcescens (S. marcescens (13880); in words): found even against S. marcescens; also recorded: effective against S. marcescens; MIC (S. agalactiae (13813)): 3.13 µg/mL (≈ 6.2 µM)
3 | C[C@H](CCC(=O)NCCNCCNCCN)[C@H]1CC[C@H]2[C@@H]3C[C@H](O)[C@@H]4C[C@H](O)CC[C@]4(C)[C@H]3CC[C@]12C [SM-32] | > 100 | > 100 | 100 (≈ 192 µM) | 25 (≈ 48 µM) | 50 (≈ 96 µM) | 25 (≈ 48 µM) | > 100 | 12.5 (≈ 24 µM) | 100 (≈ 192 µM) | 25 (≈ 48 µM) | 50 (≈ 96 µM) | 25 (≈ 48 µM) | 25 (≈ 48 µM) | 25 (≈ 48 µM) | 25 (≈ 48 µM) | 50 (≈ 96 µM) | 50 (≈ 96 µM) | 25 (≈ 48 µM) | 25 (≈ 48 µM) | 50 (≈ 96 µM) | MIC (S. aureus (H20809); 24 h): 25 µg/mL (≈ 48 µM); MIC (S. agalactiae (13813)): 25 µg/mL (≈ 48 µM)
4 | C[C@H](CCC(=O)NCCCNCCCCNCCCN)[C@H]1CC[C@H]2[C@@H]3[C@H](OS(=O)(=O)O)C[C@@H]4C[C@H](OS(=O)(=O)O)CC[C@]4(C)[C@H]3CC[C@]12C [SM-35] | 6.25 | 12.5 (≈ 17 µM) | 6.25 (≈ 8.48 µM) | 12.5 (≈ 17 µM) | 12.5 (≈ 17 µM) | 12.5 (≈ 17 µM) | > 100 | 3.13 (≈ 4.25 µM) | 6.25 (≈ 8.48 µM) | 3.13 (≈ 4.25 µM) | 25 (≈ 33.9 µM) | 6.25 (≈ 8.48 µM) | 6.25 (≈ 8.48 µM) | 6.25 (≈ 8.48 µM) | 12.5 (≈ 17 µM) | 25 (≈ 33.9 µM) | 25 (≈ 33.9 µM) | 25 (≈ 33.9 µM) | 3.13 (≈ 4.25 µM) | 25 (≈ 33.9 µM) | MIC (S. aureus (H20809); S. aureus (H20809), 35° C., 24 hours): 8.25 µg/mL (≈ 11.2 µM); MIC (S. agalactiae (13813)): 6.25 µg/mL (≈ 8.48 µM)
